Read-outs that look alike come from different tables or passages of the source. Values belong to the molecule of their own block, whether it stands above or below them.
Legend:
[1] = biological target: T1, P-Selectin (Homo sapiens, UniProt P16109); assay: Inhibition of HL60 cell adhesion to soluble, recombinant P-selectin (P-selectin-IgG1 fusion protein); type: cell-based
T1 sequence (P16109 42-771): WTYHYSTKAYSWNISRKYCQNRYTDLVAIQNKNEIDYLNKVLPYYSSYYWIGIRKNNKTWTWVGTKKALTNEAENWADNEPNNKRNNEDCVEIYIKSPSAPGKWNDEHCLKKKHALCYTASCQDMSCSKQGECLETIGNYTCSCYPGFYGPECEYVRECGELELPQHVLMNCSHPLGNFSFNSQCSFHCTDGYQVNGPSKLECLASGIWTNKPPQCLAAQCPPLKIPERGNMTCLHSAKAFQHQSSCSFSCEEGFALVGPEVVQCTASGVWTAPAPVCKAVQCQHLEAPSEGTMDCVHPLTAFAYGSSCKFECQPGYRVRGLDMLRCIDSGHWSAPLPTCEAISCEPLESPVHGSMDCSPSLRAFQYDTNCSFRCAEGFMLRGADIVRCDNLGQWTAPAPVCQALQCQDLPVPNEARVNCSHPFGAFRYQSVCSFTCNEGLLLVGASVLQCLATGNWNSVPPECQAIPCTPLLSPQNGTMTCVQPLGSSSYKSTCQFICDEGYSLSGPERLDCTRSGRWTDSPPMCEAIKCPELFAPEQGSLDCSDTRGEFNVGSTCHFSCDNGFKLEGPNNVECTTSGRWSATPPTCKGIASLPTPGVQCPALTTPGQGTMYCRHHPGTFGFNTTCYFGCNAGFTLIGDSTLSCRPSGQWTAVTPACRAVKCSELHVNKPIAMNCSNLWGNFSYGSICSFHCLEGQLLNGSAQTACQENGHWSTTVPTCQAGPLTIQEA
Source text: (§1) Carrying out these assays to measure the inhibitory activity of the compounds according to the invention on cell adhesion of promyelocytic cells by means of selecting is described in detail in European Published Application EP 0 601 417.
(§2) In order to test the efficacy of the carbohydrate conjugates on the interaction between the E- and P-selectins (former nomenclature ELAM-1 or GMP-140) with their ligands, an assay is used which in each case is specific only for one of these interactions. The ligands are supplied in their natural form as surface structures on promyelocytic HL60 cells. Since HL60 cells contain ligands and adhesion molecules of very different specificity, the desired specificity of the assay can only be produced by means of the binding component. The binding components used were genetically prepared soluble fusion proteins from the in each case extracytoplasmatic domains of E- or P-selectin and the constant region of a human immunoglobulin of the IgG1 subclass.
Preparation of P-selectin-IgG1
For preparation of the soluble P-selectin-IgG1 fusion protein, the genetic construct "ICD62Rg" published by Aruffo et al., 1991 is used. The further procedure corresponds to the preparation of L-selectin-IgG1 presented under A1.
(§3) 1. 96-well microtiter test plates (Nunc Maxisorb) are incubated at room temperature for 2 hours with 100 μl of a goat anti-human IgG antibody (Sigma) diluted (1+100) in 50 mM Tris pH 9.5. After removing the antibody solution washing is carried out once with PBS.
(§4) 2. 150 μl of the blocking buffer are left in the wells at room temperature for 1 hour. The composition of the blocking buffer is: 0.1% gelatin, 1% BSA, 5% calf serum, 0.2 mM PMSF, 0.02% sodium azide. After removing the blocking buffer washing is carried out once with PBS.
(§5) 3. 100 μl each of cell culture supernatant of appropriately transfected and expressing COS cells are pipetted into the wells. Incubation is carried out at room temperature for 2 hours. After removing the cell culture supernatant washing is carried out once with PBS.
(§6) 4. 20 μl of binding buffer are added to the wells. The binding buffer has the composition: 50 mM HEPES, pH 7.5; 100 mM NaCl; 1 mg/ml BSA; 2 mM MgCl2; 1 mM CaCl2; 3 mM MnCl2; 0.02% sodium azide; 0.2 mM PMSF. 5 μl of the test substance are pipetted into this, mixed by swirling the plate and incubated at room temperature for 10 minutes.
(§7) 5. 50 ml of an HL60 cell culture containing 200,000 cells/ml are centrifuged at 350 g for 4 minutes. The pellet is resuspended in 10 ml of RPMI 1640 and the cells are centrifuged again. For labeling the cells, 50 μg of BCECF-AM (Molecular Probes) are dissolved in 5 μl of anhydrous DMSO; 1.5 ml of RPMI 1640 are then added to the BCECF-AM/DMSO solution. The cells are resuspended using this solution and incubated at 37° C. for 30 minutes. After centrifugation at 350 g for 2 minutes, the labeled cell pellet is resuspended in 11 ml of binding buffer and the resuspended cells are distributed into the microtiter plate wells in 100 μl aliquots. The plate is allowed to stand at room temperature for 10 minutes in order to allow the cells to sediment on the bottom of the test plate. In the course of this, the cells have the opportunity to adhere to the coated plastic.
(§8) 6. To stop the test, the microtiter plate is immersed completely in the stop buffer (25 mM tris, pH 7.5; 125 mM NaCl; 0.1% BSA; 2 mM MgCl2; 1 mM CaCl2; 3 mM MnCl2; 0.02% sodium azide) at an angle of 45°. The stop buffer is removed from the wells by inversion and the procedure is repeated a further two times.
7. Measurement of the BCECF-AM-labeled cells firmly adhering to the wells is carried out in a cytofluorimeter (Millipore) at a sensitivity setting of 4, an excitation wavelength of 485/220 nm and an emission wavelength of 530/250 nm.

[2] = biological target: T2, E-Selectin (Homo sapiens, UniProt P16581); assay: Inhibition of HL60 cell adhesion to soluble, recombinant E-selectin (E-selectin-IgG1 fusion protein); type: cell-based
T2 sequence (P16581 22-556): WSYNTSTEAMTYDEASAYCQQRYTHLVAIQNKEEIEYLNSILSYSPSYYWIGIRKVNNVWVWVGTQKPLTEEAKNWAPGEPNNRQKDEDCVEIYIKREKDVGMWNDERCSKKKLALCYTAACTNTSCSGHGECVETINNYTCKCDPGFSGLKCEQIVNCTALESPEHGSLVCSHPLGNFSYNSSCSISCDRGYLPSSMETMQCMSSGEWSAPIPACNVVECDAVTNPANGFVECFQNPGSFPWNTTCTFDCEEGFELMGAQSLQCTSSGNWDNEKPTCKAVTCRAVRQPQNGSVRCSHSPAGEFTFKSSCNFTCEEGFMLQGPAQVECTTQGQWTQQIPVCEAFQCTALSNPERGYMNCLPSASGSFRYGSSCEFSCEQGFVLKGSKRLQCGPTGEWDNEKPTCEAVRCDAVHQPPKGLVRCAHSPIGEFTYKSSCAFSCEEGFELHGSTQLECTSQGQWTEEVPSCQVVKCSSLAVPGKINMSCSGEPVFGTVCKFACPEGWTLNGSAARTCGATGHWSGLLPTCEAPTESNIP
Source text: as §1, §2
Preparation of L-selectin-IgG1
For the preparation of soluble L-selectin-IgG1 fusion protein, the genetic construct "ELAM-Rg" published by Walz et al., 1990 was used.
For expression, the plasmid DNA was transfected in COS-7 cells (ATCC) by means of DEAE-dextran (Molecular Biology Methods: see Ausubel, F. M., Brent, R., Kingston, R. E., Moore, D. D., Seidman, J. G., Struhl, K. and Smith, J. A. 1990. Current Protocols in Molecular Biology, John Wiley, New York). Seven days after transfection, the culture supernatant is recovered, freed from cells and cell fragments by centrifugation and transferred to 25 mM HEPES pH 7.0, 0.3 mM PMSF, 0.02% sodium azide and stored at +4° C.
as §3, §4, §5, §6, §7, §8

[3] = inhibition of HL60 cell adhesion to soluble, recombinant adhesion molecules, read-out: IC50 P-Selectin
[4] = read-out: IC50 E-Selectin, inhibition of HL60 cell adhesion to soluble, recombinant adhesion molecules
[5] = read-out: IC50 P-Selectin, inhibition of HL60 cell adhesion to soluble, recombinant adhesion molecules

IC50 [1, 3]: 600 µM
Compound: CC(=O)N[C@H]1[C@H](OCCCCCCNC(=O)CCCC[C@@H]2SC[C@@H]3NC(=O)N[C@@H]32)O[C@H](CO)[C@@H](O[C@@H]2O[C@H](CO)[C@H](O)[C@H](O[C@]3(C(=O)O)C[C@H](O)[C@@H](NC(C)=O)[C@H]([C@H](O)[C@H](O)CO)O3)[C@H]2O)[C@@H]1O[C@@H]1O[C@@H](C)[C@@H](O)[C@@H](O)[C@@H]1O [Compound I-11]

Compound: CC(=O)N[C@@H]1[C@@H](O[C@@H]2O[C@@H](C)[C@@H](O)[C@@H](O)[C@@H]2O)[C@H](O[C@@H]2O[C@H](CO)[C@H](O)[C@H](O[C@]3(C(=O)O)C[C@H](O)[C@@H](NC(C)=O)[C@H]([C@H](O)[C@H](O)CO)O3)[C@H]2O)[C@@H](CO)O[C@H]1NC(=O)CCC(CCC(=O)N[C@@H]1O[C@H](CO)[C@@H](O[C@@H]2O[C@H](CO)[C@H](O)[C@H](O[C@]3(C(=O)O)C[C@H](O)[C@@H](NC(C)=O)[C@H]([C@H](O)[C@H](O)CO)O3)[C@H]2O)[C@H](O[C@@H]2O[C@@H](C)[C@@H](O)[C@@H](O)[C@@H]2O)[C@H]1NC(C)=O)(CCC(=O)N[C@@H]1O[C@H](CO)[C@@H](O[C@@H]2O[C@H](CO)[C@H](O)[C@H](O[C@]3(C(=O)O)C[C@H](O)[C@@H](NC(C)=O)[C@H]([C@H](O)[C@H](O)CO)O3)[C@H]2O)[C@H](O[C@@H]2O[C@@H](C)[C@@H](O)[C@@H](O)[C@@H]2O)[C@H]1NC(C)=O)[N+](=O)[O-] [II-1, tris{2-[N-(5-acetamido-3,5-dideoxy-D-glycero-D-galacto-2-nonulopyranosylate)-(2→3)-(β-D-galactopyranosyl)-(1→4)-[(α-L-fucopyranosyl)-(1→3)]-2-acetamido-1,2-dideoxy-β-D-glucopyranose]amidoethyl}nitro-methane]
IC50 [2, 4]: 380 µM
IC50 [1, 5]: > 800 µM

Compound: CC(=O)N[C@@H]1[C@@H](O[C@@H]2O[C@@H](C)[C@@H](O)[C@@H](O)[C@@H]2O)[C@H](O[C@@H]2O[C@H](CO)[C@H](O)[C@H](O[C@]3(C(=O)O)C[C@H](O)[C@@H](NC(C)=O)[C@H]([C@H](O)[C@H](O)CO)O3)[C@H]2O)[C@@H](CO)O[C@H]1NC(=O)[C@H](C)NC(=O)[C@H](CC(=O)O)NC(=O)CNC(=O)[C@@H](N)CCCNC(=N)N [Compound I-2]
IC50 [2]: > 800 µM
IC50 [1]: 10 µM

IC50 ([2]; inhibition of HL60 cell adhesion to soluble, recombinant adhesion molecules, read-out: IC50 E-Selectin): 1200 µM
Compound: CC(=O)N[C@H]1[C@H](OCCCCCCNC(=O)[C@@H](N)CCC(=O)O)O[C@H](CO)[C@@H](O[C@@H]2O[C@H](CO)[C@H](O)[C@H](O[C@]3(C(=O)O)C[C@H](O)[C@@H](NC(C)=O)[C@H]([C@H](O)[C@H](O)CO)O3)[C@H]2O)[C@@H]1O[C@@H]1O[C@@H](C)[C@@H](O)[C@@H](O)[C@@H]1O [Compound I-6]

Compound: CC(=O)N[C@H]1[C@H](OCCCCCCNC(=O)CCC(CCC(=O)NCCCCCCO[C@@H]2O[C@H](CO)[C@@H](O[C@@H]3O[C@H](CO)[C@H](O)[C@H](O[C@]4(C(=O)O)C[C@H](O)[C@@H](NC(C)=O)[C@H]([C@H](O)[C@H](O)CO)O4)[C@H]3O)[C@H](O[C@@H]3O[C@@H](C)[C@@H](O)[C@@H](O)[C@@H]3O)[C@H]2NC(C)=O)(CCC(=O)NCCCCCCO[C@@H]2O[C@H](CO)[C@@H](O[C@@H]3O[C@H](CO)[C@H](O)[C@H](O[C@]4(C(=O)O)C[C@H](O)[C@@H](NC(C)=O)[C@H]([C@H](O)[C@H](O)CO)O4)[C@H]3O)[C@H](O[C@@H]3O[C@@H](C)[C@@H](O)[C@@H](O)[C@@H]3O)[C@H]2NC(C)=O)[N+](=O)[O-])O[C@H](CO)[C@@H](O[C@@H]2O[C@H](CO)[C@H](O)[C@H](O[C@]3(C(=O)O)C[C@H](O)[C@@H](NC(C)=O)[C@H]([C@H](O)[C@H](O)CO)O3)[C@H]2O)[C@@H]1O[C@@H]1O[C@@H](C)[C@@H](O)[C@@H](O)[C@@H]1O [II-2]
IC50 [2, 4]: 130 µM
IC50 [1, 5]: 140 µM

IC50 [1, 3]: 330 µM
Compound: CC(=O)N[C@H]1[C@H](OCCCCCCNC(=O)C2CCC(CN3C(=O)C=CC3=O)CC2)O[C@H](CO)[C@@H](O[C@@H]2O[C@H](CO)[C@H](O)[C@H](O[C@]3(C(=O)O)C[C@H](O)[C@@H](NC(C)=O)[C@H]([C@H](O)[C@H](O)CO)O3)[C@H]2O)[C@@H]1O[C@@H]1O[C@@H](C)[C@@H](O)[C@@H](O)[C@@H]1O (some centres unmarked) [Compound I-9]

IC50 [1, 3]: 2000 µM
Compound: CC(=O)N[C@H]1[C@H](OCCCCCCN)O[C@H](CO)[C@@H](O[C@@H]2O[C@H](CO)[C@H](O)[C@H](O[C@]3(C(=O)O)C[C@H](O)[C@@H](NC(C)=O)[C@H]([C@H](O)[C@H](O)CO)O3)[C@H]2O)[C@@H]1O[C@@H]1O[C@@H](C)[C@@H](O)[C@@H](O)[C@@H]1O [III (n = 6), reference compound]

IC50 [1, 3]: 1500 µM
Compound: CC(=O)N[C@H]1[C@H](OCCCCCCNC(=O)CCC(=O)O)O[C@H](CO)[C@@H](O[C@@H]2O[C@H](CO)[C@H](O)[C@H](O[C@]3(C(=O)O)C[C@H](O)[C@@H](NC(C)=O)[C@H]([C@H](O)[C@H](O)CO)O3)[C@H]2O)[C@@H]1O[C@@H]1O[C@@H](C)[C@@H](O)[C@@H](O)[C@@H]1O [Compound I-7]

Source: patent US5858994A, “Carbohydrate conjugates as inhibitors of cell adhesion” (priority 1994, dated 1999)
